Experimental data as given in patent US6417397B1, “N-substituted alkylamino acids for use as amino-protecting groups” (The Regents of the University of California, San Diego, priority 1999, dated 2002).
Each block holds one molecule with its values, some of them ahead of it.

Experiment: Acidolysis (rate of scission) of acylated NMeAib amides with 2% TFA in acetonitrile
Assay type: physicochemical
Settings: for t½ of protecting group: mild acidic conditions (2% TFA in acetonitrile)
From the text: In accordance with the present invention, it has been discovered that the rate of reaction can be altered simply by modifying X. Thus, for electron-donating X groups the rate of scission (the sensitivity to acidic conditions) increases. The opposite effect holds true for electron-withdrawing X groups. Four p-substituted benzoyl-N—MeAib—Phe—OMe (7a-d) compounds were subjected to acidic conditions (2% trifluoroacetic acid (TFA) in acetonitrile) and the rate of scission measured for each protecting group.
The equation representing the line in FIG. 1 is particularly useful because it allows one to predict the rate of scission for any m-substituted or p-substituted X—C6H4C(O)—NMeAib amide where a for the parent acid is known. […]

[1] = acidolysis with 2% TFA in acetonitrile

Molecule: COc1ccc(C(=O)N(C)C(C)(C)C(=O)O)cc1 [p-methoxy-benzoyl-NMeAib]
t½ of protecting group: 0.333 h

Molecule: p-N(CH3)2C6H4C(O)—NMeAib
half life predicted from the linear free energy equation of FIG. 1 (predicted from σ of the parent acid, X = dimethylamino): about 29 seconds

Molecule: COC(=O)[C@H](Cc1ccccc1)NC(=O)C(C)(C)N(C)C(=O)c1ccc(C#N)cc1 [CN, p-CN—C6H4C(O)—NMeAib—Phe—OMe]
Half-life [1]: 8 h
k [1]: 2.3e-05 ± 1e-06 s⁻¹

Molecule: COC(=O)[C@H](Cc1ccccc1)NC(=O)C(C)(C)N(C)C(=O)c1ccc(Cl)cc1 [Cl, p-Cl—C6H4C(O)—NMeAib—Phe—OMe]
Half-life (2% TFA in acetonitrile): about 2 hours
Half-life [1]: 2 h
k [1]: 8.3e-05 ± 3e-06 s⁻¹

Molecule: p-nitro-benzoyl-NMeAib
t½ of protecting group: 12 h

The next lines start with results.

Half-life [1]: 5 h
Molecule: COC(=O)[C@H](Cc1ccccc1)NC(=O)C(C)(C)N(C)C(=O)c1ccc(C(F)(F)F)cc1 [CF3, p-CF3—C6H4C(O)—NMeAib—Phe—OMe]
k [1]: 3.7e-05 ± 2e-06 s⁻¹

Half-life (2% TFA in acetonitrile): about 12 hours
Half-life [1]: 12 h
Molecule: COC(=O)[C@H](Cc1ccccc1)NC(=O)C(C)(C)N(C)C(=O)c1ccc([N+](=O)[O-])cc1 [NO2, p-NO2—C6H4—C(O)—NMeAib—Phe—OMe]
k [1]: 1.5e-05 ± 1e-06 s⁻¹
